Test results taken from ChEMBL document CHEMBL1149669, “Sulfonamide derivatives as new potent and selective CB2 cannabinoid receptor agonists” (Bioorg Med Chem Lett, 2007).

Legend:
[1] = target: Cannabinoid receptor 1 (Homo sapiens, UniProt P21554); test: Displacement of [3H]CP-55940 from human CB1 receptor expressed in CHO cells; assay type: cell-based
[2] = target: T1, Cannabinoid receptor 2 (Homo sapiens, UniProt P34972); test: Agonist activity at human CB2 receptor expressed in CHO cells by [35S]GTP-gamma-S binding assay; assay type: functional, cell-based
[3] = target: T1, Cannabinoid receptor 2; test: Displacement of [3H]CP-55940 from human CB2 receptor expressed in CHO cells; assay type: cell-based
[4] = target: T1, Cannabinoid receptor 2; test: Agonist activity at human CB2 receptor expressed in CHO cells by [35S]GTP-gamma-S binding assay relative to CP-55940; assay type: functional, cell-based
[5] = organism: Homo sapiens; test: Selectivity for human CB2 receptor over human CB1 receptor

T1 sequence (P34972 whole entry): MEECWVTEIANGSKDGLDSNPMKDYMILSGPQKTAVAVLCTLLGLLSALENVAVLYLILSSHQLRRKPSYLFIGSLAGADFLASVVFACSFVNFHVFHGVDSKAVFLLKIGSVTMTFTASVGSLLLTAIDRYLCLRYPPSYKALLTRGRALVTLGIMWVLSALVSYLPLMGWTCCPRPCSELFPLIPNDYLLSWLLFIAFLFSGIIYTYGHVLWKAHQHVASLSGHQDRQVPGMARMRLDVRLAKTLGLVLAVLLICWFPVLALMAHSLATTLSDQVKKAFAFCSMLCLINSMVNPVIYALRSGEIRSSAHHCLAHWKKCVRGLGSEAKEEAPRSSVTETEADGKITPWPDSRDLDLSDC
Cannabinoid receptor 1, sequence (P21554 whole entry): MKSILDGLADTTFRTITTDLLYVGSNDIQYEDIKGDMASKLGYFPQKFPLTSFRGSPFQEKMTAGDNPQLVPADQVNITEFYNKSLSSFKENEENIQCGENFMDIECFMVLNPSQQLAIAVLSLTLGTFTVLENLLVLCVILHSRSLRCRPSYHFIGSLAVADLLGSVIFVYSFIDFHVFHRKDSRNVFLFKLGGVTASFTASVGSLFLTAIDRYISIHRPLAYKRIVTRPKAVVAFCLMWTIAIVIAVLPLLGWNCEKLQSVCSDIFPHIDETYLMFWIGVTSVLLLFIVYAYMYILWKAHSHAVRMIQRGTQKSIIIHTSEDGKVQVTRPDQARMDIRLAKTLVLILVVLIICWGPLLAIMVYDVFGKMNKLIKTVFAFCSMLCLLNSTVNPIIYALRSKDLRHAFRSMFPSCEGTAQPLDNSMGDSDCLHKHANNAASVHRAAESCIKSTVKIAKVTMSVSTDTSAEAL

| Structure (SMILES) | IC50 [1] | EC50 [2] | IC50 [3] | Emax [4] | Ratio IC50 [5] |
| --- | --- | --- | --- | --- | --- |
| Cc1c(C(C)(C)C)s/c(=N\S(=O)(=O)c2ccccc2)n1C | > 50000 nM | 110 nM | 340 nM | 110% | – |
| Cc1c(C(C)(C)C)s/c(=N\S(=O)(=O)c2cccc3ccccc23)n1CC1CC1 | 1700 nM | 7.2 nM | 16 nM | 100% | 106 |
| CC(C)=CCn1c(C)c(C(C)(C)C)s/c1=N\S(=O)(=O)c1ccccc1 | – | – | 170 nM | – | – |
| C=CCn1c(C)c(C(C)(C)C)s/c1=N\S(=O)(=O)c1ccccc1 | – | – | 75 nM | – | – |
| Cc1c(C(C)(C)C)s/c(=N\S(=O)(=O)c2ccccc2)n1CC1CC1 | – | – | 65 nM | – | – |
| Cc1c(C(C)(C)C)s/c(=N\S(=O)(=O)c2ccc3ccccc3c2)n1CC1CC1 | – | – | 490 nM | – | – |
| C#CCn1c(C)c(C(C)(C)C)s/c1=N\S(=O)(=O)c1ccccc1 | – | – | 210 nM | – | – |
